From patent US11970474B2, “Substituted benzodiazoles and use thereof in therapy” (THOMAS HELLEDAYS STIFTELSE FÖR MEDICINSK FORSKNING, priority 2018, dated 2024)
Like-named read-outs stand apart in the source and are kept apart here.

Columns and labels:
OGG1 = OGG1 (Homo sapiens (Human), UniProt O15527); assay: In vitro OGG1 activity assay; assay type: biochemical; settings: 800 pM OGG1 enzyme, 2 nM human APEX1, 10 nM 8-oxoA:C substrate
Method in brief: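 Read-out is fluorescein fluorescence, with compounds in DMSO added first, then enzyme and substrate. OGG1 excises its substrate base from a quenched fluorophore-labelled duplex, and surplus APEX1 cuts the resulting apurinic site. The duplex then melts and fluorescence rises in proportion to glycosylase activity.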

MLE12 cells = assay: Cell viability assay in MLE12 cells (resazurin); assay type: cell-based, mouse; settings: TNF-α 20 ng/ml, resazurin added after 24 hours culture
Description: (§1) Stock solutions (10 mM in DMSO) of compounds were dispensed in V-bottom 384-well plates and the following dilutions were prepared: 10 mM and 0.05 mM. The dilutions were transferred to the source plate. Duplicate 6 points dose-response curves of compounds were nano-dispensed in cell plates (CCL2 assay) and in parallel, 11 points DR curves in duplicates were nano-dispensed for the viability assay. The plates were heat sealed and kept at RT until use.
(§2) MLE12 cells in flasks were washed once with PBS, detached with Trypsin/EDTA, resuspended in fresh medium and counted. Cells were diluted to 3×10^5 cells/ml and seeded with Multidrop Combi in cell plates pre-dispensed with compounds, 25 μl/well (7500 cells/well). The plates were placed, one by one, in a CO2-incubator at 37° C. for 1 hour after which 25 μl/well of TNF-α (final concentration 20 ng/ml) were added. The plates were transferred back to the CO2-incubator placed in a plastic box with wet tissue in the bottom, to avoid evaporation, for 30 hours.
After 24 hours culture, resazurin reagent (stock 1 mg/ml in PBS) diluted 1:17 in PBS was added with Multidrop Combi, 10 μl/well, and plates were incubated for 6 hours. Plates were read in Sense plate reader with resorufin protocol (ex544 nm/em595 nm). The results were imported to an excel template where the EC50 values were calculated using XLfit.

CCL2 = assay: Mouse CCL2 assay in MLE12 cells; assay type: cell-based
Text: Cisbio mouse CCL2 assay is intended for the quantitative measurement of CCL2 in supernatant using HTRF® technology. The assay is compatible with mouse samples, and is highly specific for CCL2. CCL2 is detected in a sandwich assay format using 2 different specific antibodies, one labeled with Cryptate (donor) and the second with d2 (acceptor). The detection principle is based on HTRF® technology. When the labelled antibodies bind to the same antigen, the excitation of the donor with a light source (laser or flash lamp) triggers a Fluorescence Resonance Energy Transfer (FRET) towards the acceptor, which in turn fluoresces at a specific wavelength (665 nm). The two antibodies bind to the CCL2 present in the sample, thereby generating FRET. Signal intensity is proportional to the number of antigen-antibody complexes formed and therefore to the CCL2 concentration. • Materials: • Cells: MLE12 (Mouse Lung Epithelial cells, SV40 transformed) • Medium: DMEM/F12 (Gibco #11330057), FBS 5% (Gibco #10500064), Pen/Strep 50 U/50 μg/ml (Gibco #15070063) • Cell plates: 384-well, black/clear, TC-treated (Corning #3764) • Source plate: Labcyte LDV 384 (Labcyte #LP-0200) • Compound dilution plate: V-bottom 384-well PP plate (Greiner #781280) • Compounds: 10 mM stocks in DMSO • HTRF plates: 384-well, white, half area, non-binding (Costar #3824) • Mouse CCL2 kit: Cisbio 62MCCL2PEH • Other reagents: Trypsin/EDTA 10× (Gibco #15400054), PBS (Gibco #14190169), Resazurin (Sigma-Aldrich #199303), 1 mg/ml in PBS, TNF-α 200 μg/ml in PBS (Peprotech #300-01A) • Instruments: • Echo liquid handler (Labcyte) • Multidrop Combi (Thermo Scientific) • Sense plate reader (Hidex) Compound Handling:
as §1, §2
After 30 hours incubation, the plates were spun down 5 minutes at 400 g, and 16 μl/well of the supernatants were transferred to the assay plate. A mCCL2 standard curve was prepared according to the kit protocol and 16 μl/well of the standards were also added to the assay plate.
The anti-CCL2 antibody mix was prepared according to the kit protocol, and 4 μl/well were added to the assay plate. The plate was sealed and incubated over night at RT. After incubation the plate was read in Sense plate reader with Time-resolved FRET protocol (Ex330 nm/Em 620 and 665 nm). After data reduction, the delta ratios were imported to an excel template where the IC50 values were calculated.

[1] = Mus musculus, MLE12, 30 h, MLE12 cells, TNF-α 20 ng/ml, supernatant after 30 hours, HTRF, read-out: CCL2 (EC50)
[2] = Mus musculus, MLE12, 30 h, read-out: CCL2 (EC50, nM)

Chain of OGG1 (O15527 whole entry): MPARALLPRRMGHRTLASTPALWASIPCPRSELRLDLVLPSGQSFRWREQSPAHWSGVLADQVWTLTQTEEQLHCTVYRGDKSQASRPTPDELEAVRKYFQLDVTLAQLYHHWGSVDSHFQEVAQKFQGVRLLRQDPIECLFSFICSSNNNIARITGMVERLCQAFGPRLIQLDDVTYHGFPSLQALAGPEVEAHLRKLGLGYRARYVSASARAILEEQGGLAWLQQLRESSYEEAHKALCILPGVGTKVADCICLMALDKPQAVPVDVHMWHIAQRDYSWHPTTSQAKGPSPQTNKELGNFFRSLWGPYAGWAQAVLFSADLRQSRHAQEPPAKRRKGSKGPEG

Row | Compound | IC50 (OGG1) [µM] | EC50 (CCL2; [1]) [nM] | EC50 (CCL2; MLE12 cells, TNF-α 20 ng/ml, supernatant after 30 hours, HTRF, read-out: CCL2 (EC50)) [nM] | IC50 (MLE12 cells; Mus musculus, MLE12, 24 h) [µM] | IC50 (MLE12 cells; Mus musculus) [µM] | EC50 (CCL2; [2]) [nM] | IC50 (MLE12 cells) [µM]
1 | COc1cc(NC(=O)N2CCC(n3c(=O)[nH]c4c(-c5ccc(CO)nc5)cccc43)CC2)ccc1Cl [Example 83, N-(4-Chloro-3-methoxyphenyl)-4-{4-[6-(hydroxymethyl)pyridin-3-yl]-2-oxo-2,3-dihydro-1H-1,3-benzodiazol-1-yl}piperidine-1-carboxamide] | 0.958 | 34700 | – | 14 | – | – | –
2 | Cc1cc(NC(=O)N2C3CCC2CC(n2c(=O)[nH]c4c(Br)cccc42)C3)ccc1I (stereo not drawn) [Example 84, 3-(4-Bromo-2-oxo-2,3-dihydro-1H-1,3-benzodiazol-1-yl)-N-(4-iodo-3-methylphenyl)-(endo)-8-azabicyclo[3.2.1]octane-8-carboxamide] | 0.03 | – | – | – | 8.14 | 23900 | –
3 | COc1cc(NC(=O)N2C3CCC2CC(n2c(=O)[nH]c4c(Br)cccc42)C3)ccc1C (stereo not drawn) [Example 85, 3-(4-Bromo-2-oxo-2,3-dihydro-1H-1,3-benzodiazol-1-yl)-N-(3-methoxy-4-methylphenyl)-(endo)-8-azabicyclo[3.2.1]octane-8-carboxamide] | 0.033 | – | – | – | 17.2 | 39200 | –
4 | O=C(Nc1ccc(Cl)c(F)c1)N1C2CCC1CC(n1c(=O)[nH]c3c(Br)cccc31)C2 (stereo not drawn) [Example 86, 3-(4-Bromo-2-oxo-2,3-dihydro-1H-1,3-benzodiazol-1-yl)-N-(4-chloro-3-fluorophenyl)-(endo)-8-azabicyclo[3.2.1]octane-8-carboxamide] | 0.059 | – | – | – | 13.7 | 19400 | –
5 | CCNC(=O)c1cnn(-c2cccc3c2[nH]c(=O)n3C2CCN(C(=O)Nc3ccc(I)cc3)CC2)c1 [Example 87, 4-{4-[4-(Ethylcarbamoyl)-1H-pyrazol-1-yl]-2-oxo-2,3-dihydro-1H-1,3-benzodiazol-1-yl}-N-(4-iodophenyl)piperidine-1-carboxamide] | 0.471 | 6480 | – | 5.25 | – | – | –
6 | CN(C)CCNC(=O)c1cnn(-c2cccc3c2[nH]c(=O)n3C2CCN(C(=O)Nc3ccc(I)cc3)CC2)c1 [Example 89, 4-(4-(4-((2-(Dimethylamino)ethyl)carbamoyl)-1H-pyrazol-1-yl)-2-oxo-2,3-dihydro-1H-benzo[d]imidazol-1-yl)-N-(4-iodophenyl)piperidine-1-carboxamide 2,2,2-trifluoroacetate] | 0.09 | 47100 | – | 25.1 | – | – | –
7 | Cc1cc(NC(=O)N2C3CCC2CC(n2c(=O)[nH]c4c(-c5ccc(CO)nc5)cccc42)C3)ccc1I (stereo not drawn) [Example 91, 3-{4-[6-(Hydroxymethyl)pyridin-3-yl]-2-oxo-2,3-dihydro-1H-1,3-benzodiazol-1-yl}-N-(4-iodo-3-methylphenyl)-(endo)-8-azabicyclo[3.2.1]octane-8-carboxamide] | 0.058 | 12600 | – | 6.45 | – | – | –
8 | COc1cc(NC(=O)N2C3CCC2CC(n2c(=O)[nH]c4c(-c5ccc(CO)nc5)cccc42)C3)ccc1C (stereo not drawn) [Example 92, 3-{4-[6-(Hydroxymethyl)pyridin-3-yl]-2-oxo-2,3-dihydro-1H-1,3-benzodiazol-1-yl}-N-(3-methoxy-4-methylphenyl)-(endo)-8-azabicyclo[3.2.1]octane-8-carboxamide] | 0.084 | 38800 | – | 13.7 | – | – | –
9 | COc1cc(NC(=O)N2C3CCC2CC(n2c(=O)[nH]c4c(-c5ccc(CO)nc5)cccc42)C3)ccc1Cl (stereo not drawn) [Example 93, N-(4-chloro-3-methoxyphenyl)-3-{4-[6-(hydroxymethyl)pyridin-3-yl]-2-oxo-2,3-dihydro-1H-1,3-benzodiazol-1-yl}-(endo)-8-azabicyclo[3.2.1]octane-8-carboxamide] | 0.091 | 34900 | – | 21.3 | – | – | –
10 | O=C(Nc1ccc(Cl)c(F)c1)N1C2CCC1CC(n1c(=O)[nH]c3c(-c4ccc(CO)nc4)cccc31)C2 (stereo not drawn) [Example 94, N-(4-chloro-3-fluorophenyl)-3-{4-[6-(hydroxymethyl)pyridin-3-yl]-2-oxo-2,3-dihydro-1H-1,3-benzodiazol-1-yl}-(endo)-8-azabicyclo[3.2.1]octane-8-carboxamide] | 0.105 | 20200 | – | 8.45 | – | – | –
11 | COc1cc(NC(=O)[C@H]2CC[C@@H](n3c(=O)[nH]c4c(Br)cccc43)CC2)ccc1C [Example 107, (Cis)-4-(4-bromo-2-oxo-2,3-dihydro-1H-1,3-benzodiazol-1-yl)-N-(3-methoxy-4-methylphenyl)cyclohexane-1-carboxamide] | 0.023 | 15600 | 16700 | 7.41 | – | – | 7.4
12 | COc1cc(NC(=O)N2CCC(n3c(=O)[nH]c4c(-n5cccn5)cccc43)CC2)ccc1C [Example 117, N-(3-methoxy-4-methylphenyl)-4-[2-oxo-4-(1H-pyrazol-1-yl)-2,3-dihydro-1H-1,3-benzodiazol-1-yl]piperidine-1-carboxamide] | 1.36 | 65200 | – | 14.4 | – | – | –

Further lines, with some results ahead:

Row | IC50 (OGG1) [µM] | EC50 (CCL2; [1]) [nM] | EC50 (CCL2; MLE12 cells, TNF-α 20 ng/ml, supernatant after 30 hours, HTRF, read-out: CCL2 (EC50)) [nM] | Compound | IC50 (MLE12 cells; Mus musculus, MLE12, 24 h) [µM] | IC50 (MLE12 cells; Mus musculus) [µM] | EC50 (CCL2; [2]) [nM] | IC50 (MLE12 cells) [µM]
13 | 0.234 | 16700 | – | O=c1[nH]c2c(Br)cccc2n1[C@H]1CC[C@@H](C(=O)Nc2ccc(Cl)c(Cl)c2)CC1 [Example 118, (Cis)-4-(4-bromo-2-oxo-2,3-dihydro-1H-1,3-benzodiazol-1-yl)-N-(3,4-dichlorophenyl)cyclohexane-1-carboxamide] | 5.39 | – | – | –
14 | 0.072 | 17700 | – | O=c1[nH]c2c(Br)cccc2n1[C@H]1CC[C@@H](C(=O)Nc2ccc(Cl)cc2)CC1 [Example 119, (Cis)-4-(4-bromo-2-oxo-2,3-dihydro-1H-1,3-benzodiazol-1-yl)-N-(4-chlorophenyl)cyclohexane-1-carboxamide] | 5.07 | – | – | –
15 | 0.071 | 14100 | – | COc1cc(NC(=O)[C@H]2CC[C@@H](n3c(=O)[nH]c4c(Br)cccc43)CC2)ccc1Cl [Example 122, (Cis)-4-(4-bromo-2-oxo-2,3-dihydro-1H-1,3-benzodiazol-1-yl)-N-(4-chloro-3-methoxyphenyl)cyclohexane-1-carboxamide] | 4.5 | – | – | –
16 | 0.026 | 24200 | – | COc1ccc(NC(=O)[C@H]2CC[C@@H](n3c(=O)[nH]c4c(Br)cccc43)CC2)cc1Cl [Example 123, (Cis)-4-(4-bromo-2-oxo-2,3-dihydro-1H-1,3-benzodiazol-1-yl)-N-(3-chloro-4-methoxyphenyl)cyclohexane-1-carboxamide] | 10 | – | – | –
17 | 0.012 | 26500 | – | COc1ccc(NC(=O)[C@H]2CC[C@@H](n3c(=O)[nH]c4c(Br)cccc43)CC2)cc1C [Example 126, (Cis)-4-(4-bromo-2-oxo-2,3-dihydro-1H-1,3-benzodiazol-1-yl)-N-(4-methoxy-3-methylphenyl)cyclohexane-1-carboxamide] | 15.7 | – | – | –
